Experimental data as given in ChEMBL document CHEMBL1201862, “PubChem BioAssay data set” (2004).
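1) Cells in 96-well plates. 2) Compound, 48 h, 5 concentrations. 3) Linear interpolation between surrounding doses. 4) Unreached endpoint = highest concentration. GI50 marks 50% less growth.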 The source made the active and inactive calls. Rule as the data show it: active = GI50 up to about 1.1 µM and inactive = higher.

How the values were obtained:
Experiment in all cases: DTP human tumour cell line panel, 48 h
SNB-75 = tested on: SNB-75
CCRF-CEM = tested on: CCRF-CEM
CAKI-1 = tested on: CAKI-1
HOP-62 = tested on: HOP-62
OVCAR-4 = tested on: OVCAR-4
786-0 = tested on: 786-0
MOLT-4 = tested on: MOLT-4
SR = tested on: SR
MDA-MB-435 = tested on: MDA-MB-435
HCT-15 = tested on: HCT-15
NCI/ADR-RES = tested on: NCI/ADR-RES
SF-539 = tested on: SF-539
HT-29 = tested on: HT-29
MDA-MB-231 = tested on: MDA-MB-231
SNB-19 = tested on: SNB-19
RXF 393 = tested on: RXF 393
NCI-H226 = tested on: NCI-H226
DU-145 = tested on: DU-145

Compound | GI50 (SNB-75) | GI50 (CCRF-CEM) | GI50 (CAKI-1) | GI50 (HOP-62) | GI50 (OVCAR-4) | GI50 (786-0) | GI50 (MOLT-4) | GI50 (SR) | GI50 (MDA-MB-435) | GI50 (HCT-15) [µM] | GI50 (NCI/ADR-RES) | GI50 (SF-539) | GI50 (HT-29) | GI50 (MDA-MB-231) | GI50 (SNB-19) | GI50 (RXF 393) | GI50 (NCI-H226) | GI50 (DU-145)
COC(=O)[C@@H](O)[C@]1(C(=O)OC)C2O[C@@H](OC)[C@@H]1CCCCCC[C@H]2O | > 100 µM (inactive) | > 100 µM (inactive) | > 100 µM (inactive) | > 100 µM (inactive) | > 100 µM (inactive) | > 100 µM (inactive) | > 100 µM (inactive) | > 100 µM (inactive) | > 100 µM (inactive) | > 100 | > 100 µM (inactive) | > 100 µM (inactive) | > 100 µM (inactive) | > 100 µM (inactive) | > 100 µM (inactive) | > 100 µM (inactive) | > 100 µM (inactive) | –
CN1N=C(c2ccncc2)OC1c1ccc(Cl)c(Cl)c1 (stereo not drawn) | – | 71.6 µM (inactive) | > 100 µM (inactive) | > 100 µM (inactive) | > 100 µM (inactive) | 83.6 µM (inactive) | 44.5 µM (inactive) | – | > 100 µM (inactive) | > 100 | > 100 µM (inactive) | > 100 µM (inactive) | 60.8 µM (inactive) | > 100 µM (inactive) | > 100 µM (inactive) | 74.1 µM (inactive) | > 100 µM (inactive) | > 100 µM (inactive)
CC(C)(C)C(=O)O[C@H]1C=C[C@@H](O)[C@@H]2[C@H]1[C@@H]1C=C[C@H]2C1 | 29.9 µM (inactive) | 9.35 µM (inactive) | 71 µM (inactive) | – | 21.2 µM (inactive) | 48.5 µM (inactive) | 13.4 µM (inactive) | 18.9 µM (inactive) | – | 20 | 20.2 µM (inactive) | 26.5 µM (inactive) | – | 19.2 µM (inactive) | 70 µM (inactive) | – | – | 47.6 µM (inactive)
c1cc(C[S+]2CCCC2)oc1C[S+]1CCCC1 | > 100 µM (inactive) | > 100 µM (inactive) | > 100 µM (inactive) | > 100 µM (inactive) | > 100 µM (inactive) | > 100 µM (inactive) | > 100 µM (inactive) | – | > 100 µM (inactive) | > 100 | > 100 µM (inactive) | > 100 µM (inactive) | > 100 µM (inactive) | > 100 µM (inactive) | > 100 µM (inactive) | > 100 µM (inactive) | – | > 100 µM (inactive)
COC1(OC)CCN(Cc2ccccc2)C1=O | 16.2 µM (inactive) | 2.25 µM (inactive) | 3.89 µM (inactive) | 20.6 µM (inactive) | 16 µM (inactive) | 5.08 µM (inactive) | 2.55 µM (inactive) | – | 15.6 µM (inactive) | 13.4 | 25.3 µM (inactive) | 14 µM (inactive) | 5.92 µM (inactive) | 18.5 µM (inactive) | 17.8 µM (inactive) | 12.3 µM (inactive) | 18.7 µM (inactive) | 15.2 µM (inactive)
COC(=O)c1cc(OCc2cc(OCc3ccc(Br)cc3)cc(OCc3ccc(Br)cc3)c2)cc(OCc2cc(OCc3ccc(Br)cc3)cc(OCc3ccc(Br)cc3)c2)c1 | > 100 µM (inactive) | – | > 100 µM (inactive) | > 100 µM (inactive) | > 100 µM (inactive) | > 100 µM (inactive) | > 100 µM (inactive) | – | > 100 µM (inactive) | > 100 | > 100 µM (inactive) | 14.1 µM (inactive) | – | > 100 µM (inactive) | > 100 µM (inactive) | – | > 100 µM (inactive) | > 100 µM (inactive)
CC(=O)Nc1ccc2oc(=O)c3ccccc3c2c1 | > 100 µM (inactive) | > 100 µM (inactive) | > 100 µM (inactive) | > 100 µM (inactive) | > 100 µM (inactive) | > 100 µM (inactive) | > 100 µM (inactive) | > 100 µM (inactive) | > 100 µM (inactive) | > 100 | > 100 µM (inactive) | > 100 µM (inactive) | > 100 µM (inactive) | – | > 100 µM (inactive) | > 100 µM (inactive) | > 100 µM (inactive) | > 100 µM (inactive)
O=C1c2ccccc2C(=O)N1CCc1ncc[nH]1 | – | > 100 µM (inactive) | > 100 µM (inactive) | – | – | > 100 µM (inactive) | > 100 µM (inactive) | > 100 µM (inactive) | > 100 µM (inactive) | > 100 | > 100 µM (inactive) | > 100 µM (inactive) | > 100 µM (inactive) | – | > 100 µM (inactive) | – | – | > 100 µM (inactive)
COc1ccccc1N/C(SCc1ccccc1)=C(/C(Cl)=C(Cl)Cl)[N+](=O)[O-] | 31.8 µM (inactive) | 23.6 µM (inactive) | 28.8 µM (inactive) | 28.6 µM (inactive) | 22 µM (inactive) | 30.5 µM (inactive) | 28.2 µM (inactive) | – | 17.3 µM (inactive) | 20.7 | 24.2 µM (inactive) | 17.4 µM (inactive) | 20.3 µM (inactive) | 18.7 µM (inactive) | 39.4 µM (inactive) | – | 35.5 µM (inactive) | 26.7 µM (inactive)
CN(C)CCOC1(Cc2ccc(Cl)cc2Cl)CCC(C(C)(C)C)CC1 (stereo not drawn) | 4.27 µM (inactive) | 1.88 µM (inactive) | 15.9 µM (inactive) | 1.84 µM (inactive) | 2.42 µM (inactive) | 1.58 µM (inactive) | 1.85 µM (inactive) | 0.0266 µM (active) | 1.64 µM (inactive) | – | 1.47 µM (inactive) | 2.02 µM (inactive) | 1.43 µM (inactive) | 1.77 µM (inactive) | 2.22 µM (inactive) | 1.97 µM (inactive) | – | –
COc1ccc(-n2sc3ncc(-c4ccccc4)cc3c2=O)cc1 | 34.5 µM (inactive) | 39.4 µM (inactive) | 27.4 µM (inactive) | > 100 µM (inactive) | 23.3 µM (inactive) | 18.6 µM (inactive) | – | – | 40.6 µM (inactive) | 35.6 | 72.9 µM (inactive) | – | – | – | 29.4 µM (inactive) | 40.2 µM (inactive) | 82.2 µM (inactive) | 61.7 µM (inactive)
COc1ccccc1/C=C/c1c(N)ncnc1Nc1cccc(Cl)c1 | 9.53 µM (inactive) | 0.16 µM (active) | 20.9 µM (inactive) | 19.4 µM (inactive) | 14.6 µM (inactive) | 11.9 µM (inactive) | 0.311 µM (active) | 0.132 µM (active) | 16.7 µM (inactive) | 15.9 | – | 18.3 µM (inactive) | 17.7 µM (inactive) | 17.7 µM (inactive) | 20.6 µM (inactive) | 16 µM (inactive) | 17.4 µM (inactive) | 36.6 µM (inactive)
C(/C=N/N=C1NCCCCN1)=N\N=C1NCCCCN1 | > 100 µM (inactive) | > 100 µM (inactive) | > 100 µM (inactive) | > 100 µM (inactive) | > 100 µM (inactive) | > 100 µM (inactive) | > 100 µM (inactive) | > 100 µM (inactive) | > 100 µM (inactive) | – | > 100 µM (inactive) | > 100 µM (inactive) | > 100 µM (inactive) | > 100 µM (inactive) | > 100 µM (inactive) | – | > 100 µM (inactive) | –
